Measured values from patent US20230331707A1, “PROGRAMMED CELL NECROSIS INHIBITOR, PREPARATION METHOD THEREFOR, AND USE THEREOF” (Shanghai Institute of Organic Chemistry, Chinese Academy of …, priority 2020, published 2023).
Like-named read-outs stand apart in the source and are kept apart here.

Legend:
FADD−/− Jurkat cells [1] = experiment: Inhibition of TNF-induced programmed necrosis of FADD deficient Jurkat cells (Cell Titer-Glo viability); type: cell-based
In short: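 FADD-deficient human Jurkat T leukemia cells in log phase were adjusted to 2.5×10^5/mL and plated at 40 μl per well in 384-well plates. Compounds were added, with SM164 (50 nM) where used, for a 1 h pretreatment at 37° C. TNFα (50 ng/mL) was then added, and cells were incubated 14 h at 37° C, 5% CO2. Viability was read as ATP luminescence with Cell Titer-Glo after 30 min at room temperature, with unstimulated DMSO wells set as 100%. EC50 values were calculated in Prism Graphpad.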

L929 cells = experiment: Inhibition of TNF-induced programmed necrosis of L929 cells (Cell Titer-Glo viability); type: cell-based, mouse
In short: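 Mouse L929 fibroblasts were diluted to 6.25×10^4/ml, plated at 40 μl per well in 384-well plates, and incubated 12 hours at 37° C., 5% CO2. Compounds were added, with SM164 (500 nM) for the combination arm, and pretreated 1 h before TNFα (500 ng/mL). After 14 h, viability was read by Cell Titer-Glo luminescence against unstimulated DMSO controls, and EC50 values were fitted in Prism Graphpad.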

[2] = Liver microsomal stability test, human; type: in vitro ADME
From the text: (§1) The adopted biological test protocol was: testing the half-life of the compound in human- or mouse-derived liver microsomes.
(§2) Liver microsomes contain many enzymes involved in drug metabolism, especially cytochrome P-450, and therefore it is one of the major tissues involved in drug metabolism in living organisms. There are some correlations between the stability of the compound in liver microsomes and the pharmacogenetic stability thereof in vivo. Therefore, the relative stability of compounds in vivo can be roughly predicted by testing the half-life of different compounds in human- or mouse-derived liver microsomes. The specific methods were as follows:
(§3) Methods: 0.75 μL of 0.5 mM samples (compounds to be tested and control verapamil), 9.38 μL of 20 mg/mL liver microsomes (Human and Mouse) were taken and added to 239.88 μL PBS (on ice), and divided into 30 μL/tube samples respectively. The samples were incubated at 37° C. in a constant temperature water bath for 5 min, and then all samples were taken out. At zero-time, control group was added with 90 μL of ice acetonitrile first, and then added with 15 μL of 3 mM NADPH solution sequentially, and incubated at 37° C. in a constant temperature water bath. The corresponding samples were taken out after 5 min, 10 min, 20 min, 30 min and 60 min, respectively, and quenched by adding 90 μL of ice acetonitrile. All samples were centrifuged at 10000 rpm for 10 min, and the supernatants were taken and placed in a liquid phase vial waiting for LC-MS analysis.

[3] = Liver microsomal stability test, mouse; type: in vitro ADME
From the text: as §1, §2, §3

[4] = test system: MEFs cells expressing RIPK1 WT; experiment: TSZ-induced programmed necrosis in MEFs cells expressing RIPK1 WT; type: cell-based, mouse; settings: 600 nM
From the text: (§4) The adopted biological test protocol was: the effect of compounds on programmed necrosis in MEFs cells (mouse embryonic fibroblasts) with RIPK1 S161E mutation.
(§5) In order to verify the inhibitory effect of the compound of the present invention on the highly activated RIPK1 kinase at the cellular level, MEFs cells stably expressing RIPK1 S161E (simulating the activation state of RIPK1 after phosphorylation) were selected, TNFα-SM164-zVAD (Caspase inhibitor for inhibiting apoptosis) (TSZ) was used in combination to induce programmed cell necrosis, and cell viability was calculated by detecting chemiluminescence values, thereby obtaining the biological activity of the compound in inhibiting programmed necrosis.
(§6) Methods: MEFs cells replenished by RIPK1: WT-RIPK1, S161A-RIPK1 and S161E-RIPK1 were replenished in RIPK1 stable knockout cells respectively. After stable expression and being cultured to logarithmic growth phase, the cells were collected, and centrifuged at 1000 rpm for 5 min. The supernatant was discarded. Cell concentration was adjusted to 5×10^4/mL, and cells were inoculated into 384-well plates with 40 μL per well. Cell culture medium diluted SM164 (100 nM), zVAD (50 μM) and compound, each […], were added to the corresponding wells. After pretreatment at 37° C. for 1 h, 5 μL of cell culture medium diluted TNF (50 ng/mL) was added to each well in the stimulated group and 5 μL of culture medium was added to the control group. […] The unstimulated DMSO control wells (Ctrl) were taken as 100% cell viability. EC50 values of the compounds were calculated using Prism Graphpad statistical software.

[5] = test system: MEFs cells expressing RIPK1 S161E mutant; experiment: TSZ-induced programmed necrosis in MEFs cells expressing RIPK1 S161E mutant; type: cell-based, mouse; settings: 600 nM
From the text: as §4, §5, §6

FADD−/− Jurkat cells [6] = experiment: Inhibition of TNF-induced programmed necrosis of FADD deficient Jurkat cells (Cell Titer-Glo viability); type: cell-based; settings: at 1000-fold effective inhibitory concentration (1 μM); FADD-deficient Jurkat cells or L929 cells

Cn1ncc(C(=O)NCc2ccc(-n3cnc4c(N)ncnc43)cc2)c1Cc1ccccc1 [QY-10-40]
concentration that essentially completely inhibits TNFα-induced programmed necrosis (FADD−/− Jurkat cells [1]; FADD-deficient Jurkat cells): above 1 nM | EC50 (FADD−/− Jurkat cells [1]; FADD−/− Jurkat cells, stimulated with TNFα + SM164, read-out: EC50 (μM) FADD−/− Jurkat cells (human) TNFα + SM164): 0.06 nM | EC50 (FADD−/− Jurkat cells [1]; Homo sapiens, Jurkat, read-out: EC50 (μM) FADD−/− Jurkat cells (human) TNFα): 0.001 nM | activity of inhibition of programmed necrosis compared with GSK2982772 (FADD−/− Jurkat cells [1]; human FADD-deficient Jurkat cells, TNFα alone or in combination with SM164): stronger activity | concentration that essentially completely inhibits TNFα-induced programmed necrosis (L929 cells; L929 cells): above 1 nM | EC50 (L929 cells; L929 cells, stimulated with TNFα + SM164, read-out: EC50 (μM) L929 cells (mouse) TNFα + SM164): 0.00145 µM | EC50 (L929 cells; L929 cells, stimulated with TNFα alone, read-out: EC50 (μM) L929 cells (mouse) TNFα): 0.00048 µM | inhibition of programmed necrosis (in words) (L929 cells; mouse-derived L929 cells): excellently inhibit the occurrence of programmed necrosis | stability in liver microsomes (in words) ([2]; human derived liver microsomes): good stability | T1/2 (min) Human ([2]; human liver microsomes, NADPH, 37° C.): 40.8 min | stability in liver microsomes (in words) ([3]; mouse derived liver microsomes): good stability | T1/2 (min) Mouse ([3]; mouse liver microsomes, NADPH, 37° C.): 69.3 min | inhibition of programmed necrosis [4]: can effectively inhibit the occurrence of programmed necrosis | inhibition of programmed necrosis [5]: can significantly inhibit occurrence of programmed necrosis | cytotoxicity (FADD−/− Jurkat cells [6]): does not exhibit any cytotoxicity
